Measured values taken from the Deep4Chem optical property database.

Assay: solvent given as SMILES

SMILES	emission maximum (in ClCCl) [nm]	emission maximum (in C1CCOC1) [nm]	emission maximum (in Cc1ccccc1) [nm]	emission maximum (in CC#N) [nm]	further results
CC(C)(C)c1ccc(-c2cc(-c3ccc(-c4cc(-c5ccc(C(C)(C)C)cc5)c(C#N)s4)s3)sc2C#N)cc1	443				
CCn1c2ccccc2c2cc(-c3cc(-c4ccc5c(c4)c4ccccc4n5CC)nc(N4CCCCC4)n3)ccc21	414	408	406		emission maximum (in CCOC(C)=O): 409 nm; emission maximum (in CN(C)C=O): 417 nm
F[B-]1(F)n2c(-c3ccccc3)cc(-c3ccccc3)c2C=C2C(c3ccccc3)=CC(c3ccccc3)=[N+]21		601			
CC(C)(C)c1ccc2c3c(c4ccc(C(C)(C)C)cc4c2c1)=[N+]1C(=C(c2ccccc2)c2c(Br)c4c5ccc(C(C)(C)C)cc5c5cc(C(C)(C)C)ccc5c4n2[B-]1(F)F)C=3Br	717	715	715	714	emission maximum (in C1CCCCC1): 711 nm
Cc1cc(C)n2c1C=C1c3ccccc3C(c3[nH]c4ccccc4c3C)=[N+]1[B-]2(F)F	631	628	636	623	emission maximum (in CCCCCC): 626 nm; emission maximum (in CO): 624 nm
COc1ccccc1C1=[N+]2C(=C(c3ccccc3)c3c4c(c(-c5ccccc5OC)n3[B-]2(F)F)C2C=CC4CC2)C2=C1C1C=CC2CC1 (centres undefined)	587				
Cn1nc(-c2ccccc2)c2nc3cc(Cl)ccc3nc21		519		540	emission maximum (in C1CCCCC1): 487 nm
C=Cc1cccc(OC)c1				330	emission maximum (in C1CCCCC1): 327 nm
COc1ccccc1-n1nc(C#N)c(N2CCCC2)n1				418	
FC(F)(F)c1cc2n(n1)[B-]1(c3ccccc3Oc3ccccc31)[n+]1ccc3ccccc3c1-2	543		517		emission maximum (in C1CCCCC1): 473 nm
COc1ccc2c3ccc(OC)cc3n(-c3ccc(-c4nnc(-c5c(C)cc(C)cc5C)o4)cc3C)c2c1			436		
CCN(CC)c1ccc(-c2nc3c(nc2-c2ccc([B-](F)(c4c(C)cc(C)cc4C)c4c(C)cc(C)cc4C)cc2)c2ccccc2n3C)cc1		497.22			
CC(C)c1ccc2ccc3cccc4ccc1c2c34	377				emission maximum (in CCCCCC): 376 nm; emission maximum (in CO): 376 nm
CCN(CC)c1ccc2c(-c3ccccc3C(=O)[O-])c3ccc(=[N+](CC)CC)cc-3oc2c1				579	emission maximum (in CCO): 571 nm; emission maximum (in CN(C)C=O): 588 nm; emission maximum (in O): 580 nm
CC(=O)c1ccc(C#Cc2ccc(-c3cc(N(C)C)c4ccccc4c3)cc2)cc1	458				
CC(C)[Si](C#Cc1c2cc3ccccc3cc2c(C#Cc2ccc(F)cc2)c2cc3ccccc3cc12)(C(C)C)C(C)C	660				
CC1(C)CC(=O)C2=C(C1)Oc1ccc3cc(O)ccc3c1C2c1ccccn1 (centres undefined)		374		378	emission maximum (in C1COCCO1): 377 nm; emission maximum (in CCCCCCC): 359 nm; emission maximum (in CCO): 377 nm; emission maximum (in CO): 377 nm; emission maximum (in O): 378 nm
COC(=O)c1c(NC(C)(C)C)oc(-c2ccc(-c3ccccc3)cc2)c1C(=O)OC				446	
O=S(=O)(/N=c1\oc2cccc3c4c(-c5ccccc5)oc5cccc(c(c1-c1ccccc1)c23)c54)C(F)(F)F	569				emission maximum (in CCCCCC): 535 nm; emission maximum (in CO): 582 nm; emission maximum (in CS(C)=O): 596 nm; emission maximum (in ClC(Cl)Cl): 558 nm; emission maximum (in O): 601 nm
O=S(=O)([O-])c1ccc(/C=C/c2ccc(-c3nnc(-c4ccc(/C=C/c5ccc(S(=O)(=O)[O-])cc5S(=O)(=O)[O-])cc4)o3)cc2)c(S(=O)(=O)[O-])c1		416			emission maximum (in CC(C)=O): 415 nm; emission maximum (in CN(C)C=O): 430 nm
O=c1oc2ccccc2cc1-c1ccc(-c2ccc(-c3cc4ccccc4oc3=O)cc2)cc1	430				
c1ccc(N(c2ccccc2)c2ccc3c(ccc4nc5ccc6cc(N(c7ccccc7)c7ccccc7)ccc6c5nc43)c2)cc1	576	552	512		emission maximum (in C1CCCCC1): 492 nm; emission maximum (in CN(C)C=O): 626 nm
COc1ccc(-c2nc(-c3ccccc3)c(N(C)C)[se]2)cc1					emission maximum (in ClC(Cl)Cl): 438 nm
CCCC1=C(CCC)c2cccc3c2c(cc2nc4ccccc4nc23)O1	563				
N#Cc1ccc2c(c1)C1(c3cc(C#N)ccc3-2)c2ccccc2N(c2ccccc2)c2ccccc21			492.18		

SMILES	emission maximum (in ClCCl) [nm]	emission maximum (in C1CCOC1) [nm]	emission maximum (in Cc1ccccc1) [nm]	emission maximum (in CC#N) [nm]	further results
O=P1(c2ccccc2)c2cc(N3c4ccccc4Oc4ccccc43)ccc2-c2ccc(N3c4ccccc4Oc4ccccc43)cc21			540		emission maximum (in c1ccc2c(c1)c1ccccc1n2-c1ccc(-c2ccc(-n3c4ccccc4c4ccccc43)cc2)cc1): 550 nm
CCCCCCCCCCOc1cc(OCCCCCCCCCC)cc(C2=C3C(/C=C/c4ccc(N(C)C)cc4)=C(C#Cc4ccc(C(C)(C)C)cc4)C(/C=C/c4ccc(N(C)C)cc4)=[N+]3[B-](F)(F)n3c(/C=C/c4ccc(N(C)C)cc4)c(C#Cc4ccc(C(C)(C)C)cc4)c(/C=C/c4ccc(N(C)C)cc4)c32)c1					emission maximum (in ClC(Cl)Cl): 835 nm
CC(C)c1cccc(C(C)C)c1-n1c(=O)c2cc3nc(-c4ccccc4)c4cc5c(=O)n(-c6c(C(C)C)cccc6C(C)C)c(=O)c6cc7c(-c8ccccc8)nc8cc(c1=O)c2c1c3c4c(c56)c7c81					emission maximum (in ClC(Cl)Cl): 488 nm
CN(C)c1ccc(/C=C2\CC/C(=C\c3ccc(N(C)C)cc3)C2=O)cc1	547	529	482	587	emission maximum (in C1COCCO1): 493 nm; emission maximum (in CC(C)=O): 565 nm; emission maximum (in CC(C)O): 590 nm; emission maximum (in CCO): 613 nm; emission maximum (in CCOC(C)=O): 528 nm; emission maximum (in CN(C)C=O): 575 nm; emission maximum (in CO): 635 nm; emission maximum (in CS(C)=O): 588 nm; emission maximum (in ClC(Cl)(Cl)Cl): 478 nm; emission maximum (in ClC(Cl)Cl): 543 nm; emission maximum (in S=C=S): 497 nm
COc1ccc2c(c1)C(C)(C)c1c-2c2ccc(OC)cc2c2cc(OC)ccc12					emission maximum (in C1CCCCC1): 398 nm
CC(C)(C)c1ccccc1N(c1ccccc1)c1ccc(S(=O)(=O)c2ccc(S(=O)(=O)c3ccc(N(c4ccccc4)c4ccccc4C(C)(C)C)cc3)cc2)cc1			444		emission maximum (in c1cc(-n2c3ccccc3c3ccccc32)nc(-n2c3ccccc3c3ccccc32)c1): 465.06 nm
O=C1Cc2ccc(cc2)CC(=O)Cc2ccc(c3nsnc23)C1				495	emission maximum (in C1CCCCC1): 468 nm; emission maximum (in ClC(Cl)Cl): 488 nm
F[B-]1(F)OC(c2ccc(C(F)(F)F)cc2)=Cc2c3ccccc3c3ccccc3[n+]21					emission maximum (in ClC(Cl)Cl): 446 nm
COC(=O)C1=C(C(=O)OC)C2(c3cc([N+](=O)[O-])ccc3-c3ccc([N+](=O)[O-])cc32)C2(/C=C/c3ccccc3)c3cc(OC)c(OC)cc3CCN12 (centres undefined)	495				
F[B-]1(F)n2c(c3cccc4cccc2c43)=Nc2cccc(Cl)[n+]21	526	503	503	502	emission maximum (in CCCCCC): 498 nm
CN(C)c1ccc(-c2nc3nccnc3n2-c2ccc(N(C)C)cc2)cc1				472	
C[n+]1ccn(CCCCc2ccc3c(c2)c2ccccc2n3-c2cc(C#N)c(C#N)cc2-n2c3ccccc3c3cc(CCCCn4cc[n+](C)c4)ccc32)c1				572	
c1ccc2c(c1)c1ccccc1n2-c1ccc2c(c1)c1ccccc1n2-c1ccc(-n2c3ccccc3c3cc(-n4c5ccccc5c5ccccc54)ccc32)cc1	383	372	372		emission maximum (in CC(C)=O): 379 nm
C[n+]1ccc2c(ccc3c[n+](C)ccc32)c1				407	
CCn1c2ccccc2c2cc(-c3cc(-c4ccc5c(c4)c4ccccc4n5CC)nc(-c4ccc(C#N)cc4)n3)ccc21	417	408	388		emission maximum (in CCOC(C)=O): 408 nm; emission maximum (in CN(C)C=O): 422 nm
CCN(CC)c1ccc(/C=C2\CC/C(=C\c3ccc(N(c4ccc(/C=C5\CC/C(=C\c6ccc(N(CC)CC)cc6)C5=C(C#N)C#N)cc4)c4ccc(/C=C5\CC/C(=C\c6ccc(N(CC)CC)cc6)C5=C(C#N)C#N)cc4)cc3)C2=C(C#N)C#N)cc1					emission maximum (in CN(C)C=O): 720 nm
Cc1cc(=O)oc2c3c4c(cc12)CCCN4CCC3				450	emission maximum (in C1CCCCC1): 407 nm; emission maximum (in CCO): 473 nm; emission maximum (in O): 489 nm
CCN(CC)c1ccc2cc(/C=C/C(=C(C#N)C#N)c3ccc(N(c4ccccc4)c4ccccc4)cc3)c(=O)oc2c1	581		576		emission maximum (in CC(C)=O): 621 nm; emission maximum (in CCOC(C)=O): 599 nm; emission maximum (in CN(C)C=O): 636 nm; emission maximum (in CS(C)=O): 643 nm
CCOC(=O)c1cc(C(=O)OCC)c2cc(OC)ccc2n1					emission maximum (in CCO): 441 nm
CCOC(=O)C1=C(C)NC2=C(C(=O)c3ccccc32)C1c1ccc(N(C)C)cc1 (centres undefined)	530	497		542	emission maximum (in C1COCCO1): 490 nm; emission maximum (in CCO): 559 nm; emission maximum (in CN(C)C=O): 540 nm; emission maximum (in CO): 561 nm; emission maximum (in CS(C)=O): 548 nm; emission maximum (in ClC(Cl)(Cl)Cl): 475 nm; emission maximum (in ClC(Cl)Cl): 532 nm
C#CC1CN2CCC1CC2[C@@H](O)c1ccnc2ccc(OC)cc12 (some centres undefined)	363	361	360	358	emission maximum (in CCCC#N): 359 nm
CCNc1ccc2c(c1)C(C)(C)C(=O)C=C2					emission maximum (in O): 541 nm
C(#Cc1ccccc1C#Cc1ccccc1)c1ccccc1				360	
COc1c2ccccc2c(OC)c2c(C#Cc3ccccc3)c3cc4ccccc4cc3c(C#Cc3ccccc3)c12	718				
